Measurements taken from patent US6127519A, “Calcitonin derivatives” (Tsumura & Co., priority 1990, dated 2000).
Ends that are not written are not given here.

Test system: calcium concentration in the serum
Assay: Test 1: reduction of calcium level in serum after tail vein administration to rats
Type: in vivo, rats of the Wistar strain
Conditions: 1 ml/kg tail vein, female Wistar rats
Outline: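 Female Wistar rats, six weeks old, were assigned in groups of 4 and given the test peptides through the tail vein at 1 ml/kg. The peptides were dissolved in 1% aqueous sodium acetate (pH 4,0) containing 0.1% BSA. Blood (0.3 ml) was drawn from the neck vein immediately before dosing and at set times afterward. Serum was separated by centrifuging at 3500 rpm for 20 minutes. Calcium was measured on a TBA-380 analyzer with a Wako o-cpc kit, and the percentage reduction in serum calcium was calculated.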

[1] = concentration 166 ng/ml, 0 hour (just before administration)
[2] = concentration 166 ng/ml, 1 hour
[3] = concentration 166 ng/ml, 2 hours
[4] = concentration 166 ng/ml, 4 hours
[5] = concentration 166 ng/ml, 6 hours
[6] = concentration 83 ng/ml, 0 hour (just before administration)
[7] = concentration 83 ng/ml, 2 hours
[8] = concentration 83 ng/ml, 4 hours
[9] = concentration 83 ng/ml, 6 hours
[10] = concentration 830 ng/ml, 0 hour (just before administration)
[11] = concentration 830 ng/ml, 1 hour
[12] = concentration 830 ng/ml, 2 hours
[13] = concentration 830 ng/ml, 4 hours
[14] = concentration 830 ng/ml, 6 hours

Substance | Serum calcium level as percent of pre-dose baseline [1] [%] | Serum calcium level as percent of pre-dose baseline [2] [%] | Serum calcium level as percent of pre-dose baseline [3] [%] | Serum calcium level as percent of pre-dose baseline [4] [%] | Serum calcium level as percent of pre-dose baseline [5] [%] | Serum calcium level as percent of pre-dose baseline [6] [%] | Serum calcium level as percent of pre-dose baseline (concentration 83 ng/ml, 1 hour) [%] | Serum calcium level as percent of pre-dose baseline [7] [%] | Serum calcium level as percent of pre-dose baseline [8] [%] | Serum calcium level as percent of pre-dose baseline [9] [%] | Serum calcium level as percent of pre-dose baseline [10] [%] | Serum calcium level as percent of pre-dose baseline [11] [%] | Serum calcium level as percent of pre-dose baseline [12] [%] | Serum calcium level as percent of pre-dose baseline [13] [%] | Serum calcium level as percent of pre-dose baseline [14] [%]
AGNLSTAMLGKLSQELHKLQTYPQTAIGVGAP-NH2 [Peptide No. 14] | 100.0 | 76.0 | 70.0 | 74.3 | 73.7 |  |  |  |  |  |  |  |  |  | 
AGNLSTAMLGKLSQELHKLYPQTAIGVGAP-NH2 [Peptide No. 16] | 100.0 | 80.0 | 86.5 | 84.8 | 85.7 |  |  |  |  |  |  |  |  |  | 
AGNLSTAMLGKLSQELHKQTYPQTAIGVGAP-NH2 [Peptide No. 15] | 100.0 | 75.5 | 67.5 | 80.6 | 75.3 |  |  |  |  |  |  |  |  |  | 
Peptide No. 20: novel linear calcitonin-derivative peptide, Ala at 1 and 7, Leu8, SEQ ID NO:20 (AGNLTSALLGKLSQELHKLQTYPQTAIGVGAP; ends and bridges not checked) |  |  |  |  |  | 100.0 | 86.6 | 88.4 | 83.9 | 87.5 | 100.0 | 80.6 | 87.8 | 82.9 | 84.5
Peptide No. 21: novel calcitonin-derivative peptide, aminosuberic acid (carba) ring, Met8, SEQ ID NO:21 (XGNLSTAMLGKLSQELHKLQTYPQTAIGVGAP; aminosuberic acid carba ring) |  |  |  |  |  | 100.0 | 78.4 | 71.7 | 62.6 | 67.1 | 100.0 | 78.4 | 71.7 | 62.6 | 67.1
Peptide No. 22: novel calcitonin-derivative peptide, aminosuberic acid (carba) ring, Leu8, SEQ ID NO:22 (XGNLSTALLGKLSQELHKLQTYPQTAIGVGAP; aminosuberic acid carba ring) |  |  |  |  |  | 100.0 | 76.1 | 70.7 | 70.7 | 75.9 | 100.0 | 77.2 | 70.7 | 55.8 | 48.5
